# According to ChEMBL document CHEMBL6134788, “Development of naphthalimide hydrazide derivatives as potent antibacterial agents against carbapenem-resistant A. baumannii” (RSC Med Chem, 2024):
# Active and inactive are the calls of the source. No cut-off for these calls is given here.
# Assays:
# Escherichia coli = test: Antibacterial activity against Escherichia coli ATCC 25922 assessed as inhibition of bacterial growth incubated for 16 to 18 hrs by CLSI protocol based method; assay type: functional; details: time 16-18 hrs, read-out: MIC100
# Acinetobacter baumannii [1] = test: Antibacterial activity against carbapenem-resistant Acinetobacter baumannii BAA 1605 assessed as inhibition of bacterial growth incubated for 16 to 18 hrs by CLSI protocol based method; assay type: functional; details: time 16-18 hrs, read-out: MIC100
# Pseudomonas aeruginosa = test: Antibacterial activity against Pseudomonas aeruginosa ATCC 27853 assessed as inhibition of bacterial growth incubated for 16 to 18 hrs by CLSI protocol based method; assay type: functional; details: time 16-18 hrs, read-out: MIC100
# Acinetobacter baumannii [2] = test: Antibacterial activity against multi-drug resistant Acinetobacter baumannii H72721 assessed as inhibition of bacterial growth incubated for 16 to 18 hrs by CLSI protocol based method; assay type: functional; details: time 16-18 hrs, read-out: MIC100
# Acinetobacter baumannii [3] = test: Antibacterial activity against multi-drug resistant Acinetobacter baumannii clinical isolate 1 assessed as inhibition of bacterial growth incubated for 16 to 18 hrs by CLSI protocol based method; assay type: functional; details: time 16-18 hrs, read-out: MIC100
# Acinetobacter baumannii [4] = test: Antibacterial activity against multi-drug resistant Acinetobacter baumannii clinical isolate 2 assessed as inhibition of bacterial growth incubated for 16 to 18 hrs by CLSI protocol based method; assay type: functional; details: time 16-18 hrs, read-out: MIC100
# Acinetobacter baumannii [5] = test: Antibacterial activity against multi-drug resistant Acinetobacter baumannii clinical isolate 5 assessed as inhibition of bacterial growth incubated for 16 to 18 hrs by CLSI protocol based method; assay type: functional; details: time 16-18 hrs, read-out: MIC100
# Acinetobacter baumannii [6] = test: Antibacterial activity against multi-drug resistant Acinetobacter baumannii clinical isolate 8 assessed as inhibition of bacterial growth incubated for 16 to 18 hrs by CLSI protocol based method; assay type: functional; details: time 16-18 hrs, read-out: MIC100
# Acinetobacter baumannii [7] = test: Antibacterial activity against multi-drug resistant Acinetobacter baumannii clinical isolate 9 assessed as inhibition of bacterial growth incubated for 16 to 18 hrs by CLSI protocol based method; assay type: functional; details: time 16-18 hrs, read-out: MIC100
# Acinetobacter baumannii [8] = test: Antibacterial activity against multi-drug resistant Acinetobacter baumannii 5-109 assessed as inhibition of bacterial growth incubated for 16 to 18 hrs by CLSI protocol based method; assay type: functional; details: time 16-18 hrs, read-out: MIC100
# Acinetobacter baumannii [9] = test: Antibacterial activity against multi-drug resistant Acinetobacter baumannii BC-5 assessed as inhibition of bacterial growth incubated for 16 to 18 hrs by CLSI protocol based method; assay type: functional; details: time 16-18 hrs, read-out: MIC100
# Acinetobacter baumannii [10] = test: Antibacterial activity against carbapenem-resistant Acinetobacter baumannii BAA 1605 assessed as inhibition of bacterial growth incubated 24 hrs in presence of amikacin by checkerboard method; assay type: functional
# Acinetobacter baumannii [11] = test: Antibacterial activity against carbapenem-resistant Acinetobacter baumannii BAA 1605 assessed as inhibition of bacterial growth incubated 24 hrs in presence of minocycline by checkerboard method; assay type: functional
# Acinetobacter baumannii [12] = test: Antibacterial activity against carbapenem-resistant Acinetobacter baumannii BAA 1605 assessed as inhibition of bacterial growth incubated 24 hrs in presence of polymyxin B by checkerboard method; assay type: functional
# Acinetobacter baumannii [13] = test: Antibacterial activity against carbapenem-resistant Acinetobacter baumannii BAA 1605 assessed as inhibition of bacterial growth by measuring levofloxacin MIC incubated 24 hrs by checkerboard method; assay type: functional
# Acinetobacter baumannii [14] = test: Antibacterial activity against carbapenem-resistant Acinetobacter baumannii BAA 1605 assessed as inhibition of bacterial growth by measuring fractional inhibitory concentration incubated 24 hrs in presence of amikacin by checkerboard method; assay type: functional
# Acinetobacter baumannii [15] = test: Synergistic antibacterial activity against carbapenem-resistant Acinetobacter baumannii BAA 1605 assessed as inhibition of bacterial growth by measuring fractional inhibitory concentration incubated 24 hrs in presence of tobramycin by checkerboard method; assay type: functional
# Acinetobacter baumannii [16] = test: Antibacterial activity against carbapenem-resistant Acinetobacter baumannii BAA 1605 assessed as amikacin MIC by measuring fractional inhibitory concentration incubated 24 hrs by checkerboard method relative to amikacin alone; assay type: functional
# Acinetobacter baumannii [17] = test: Antibacterial activity against carbapenem-resistant Acinetobacter baumannii BAA 1605 assessed as levofloxacin MIC by measuring fractional inhibitory concentration incubated 24 hrs by checkerboard method relative to levofloxacin alone; assay type: functional
# Acinetobacter baumannii [18] = test: Antibacterial activity against carbapenem-resistant Acinetobacter baumannii BAA 1605 assessed as minocycline MIC by measuring fractional inhibitory concentration incubated 24 hrs by checkerboard method relative to minocycline alone; assay type: functional
# Acinetobacter baumannii [19] = test: Synergistic antibacterial activity against carbapenem-resistant Acinetobacter baumannii BAA 1605 assessed as reduction in bacterial growth measured within 24 hrs in presence of tobramycin by time-kill kinetics analysis; assay type: functional, organism-based
structure (smiles),measurement,setting,value
O=C(CCN1C(=O)c2cccc3cccc(c23)C1=O)NNc1ccc(Br)cc1,MIC,Escherichia coli,> 64 µg/mL
same,MIC,Acinetobacter baumannii [1],0.5 µg/mL
same,MIC,Pseudomonas aeruginosa,> 64 µg/mL
same,MIC,Acinetobacter baumannii [2],0.5 µg/mL
same,MIC,Acinetobacter baumannii [3],0.25 µg/mL
same,MIC,Acinetobacter baumannii [4],0.5 µg/mL
same,MIC,Acinetobacter baumannii [5],1 µg/mL
same,MIC,Acinetobacter baumannii [6],0.5 µg/mL
same,MIC,Acinetobacter baumannii [7],0.5 µg/mL
same,MIC,Acinetobacter baumannii [8],0.5 µg/mL
same,MIC,Acinetobacter baumannii [9],0.5 µg/mL
same,MIC,Acinetobacter baumannii [10],0.25 µg/mL
same,MIC,Acinetobacter baumannii [11],1 µg/mL
same,MIC,Acinetobacter baumannii [12],0.25 µg/mL
same,MIC,Acinetobacter baumannii [13],8 µg/mL
same,FIC,Acinetobacter baumannii [14],0.25
same,FIC,Acinetobacter baumannii [15],0.25
same,FIC,Acinetobacter baumannii [16],0.5
same,FIC,Acinetobacter baumannii [17],1
same,FIC,Acinetobacter baumannii [18],1
same,Activity,Acinetobacter baumannii [19],Active
